Data as given in article PMC7170889, “Synthesis and evaluation of designed PKC modulators for enhanced cancer immunotherapy” (Nature Communications, 2020).

Assays:
[1] = molecular target: T1, PKCα (Homo sapiens, UniProt P17252); experiment: PKC competitive binding assay with [3H]-phorbol dibutyrate (PKCα); conditions: cell-free, competition with [3H]-PDBu, PS vesicles; read-out: Ki PKCα
T1 construct: purchased Invitrogen
Protocol: (§1) With a panel of compounds bearing diverse functionality at C13, we began to explore how these modifications affect PKC binding and biological function. Because an obvious prerequisite for PKC pathway involvement is binding to PKC, compounds were initially evaluated for PKC affinity in a cell-free competitive binding assay with tritiated phorbol dibutyrate ([^3H]-PDBu). Assays were performed with representative members of both the conventional (PKCα) and novel (PKCδ) PKC families. Subsequently, compounds were assayed for PKC isoform translocation in real time in living cells using an optical assay. Translocation to the plasma membrane is the hallmark of PKC activation[18],[57],[60] and therefore monitoring the subcellular localization of a PKCδ-GFP fusion protein via confocal microscopy offers a convenient method for determining whether a compound enters a cell and engages its PKC isoform target. Finally and of clinical significance, we also determined the effect of compounds on CD22 surface expression in vitro in NALM6 cells, an ALL cell line previously studied in connection with CD22-targeted CAR T cell therapy, and two additional lymphoma cell lines[11],[31],[65].
PKC Binding Assay Protocol […]
competition with 3H-phorbol-12,13-dibutyrate (3H-PDBu) as described below. This procedure entails a glass-fiber filtration method to determine bound radioligand.
Preparation of PKC binding assay buffer
To a 50 mL polypropylene tube was added Tris-HCl (pH 7.4, 1 M, 1 mL), KCl (1 M, 2 mL), CaCl2 (0.1 M, 30 μL), and bovine serum albumin (BSA, 40 mg, Sigma-Aldrich). This mixture was diluted to 20 mL with deionized H2O and mixed gently. The buffer was stored on ice until use. The final […]
Supplementary Table1. PKC binding assay buffer composition.
Preparation of phosphatidylserine (PS) vesicles
For every two assays, 3.5 mg phosphatidylserine (Avanti Polar Lipids, porcine, 25 mg/mL CHCl3 solution) was concentrated by removing chloroform under a stream of nitrogen followed by reduced pressure. The solid PS was suspended as vesicles in freshly prepared PKC binding assay buffer (3.5 mL) by sonicating six times for 30 sec, with a 30 sec rest between sonications (Branson Sonifier 250, power = 2, 50% duty cycle). The resulting milky cloudy mixture (1 mg/mL) was stored […]
Preparation of PKC isoform solution
Assay PKC was prepared by dissolving a 4 μg aliquot of the indicated recombinant human PKC isoform (Invitrogen) into 11.6 mL of PKC binding assay buffer (this amount is sufficient for two assays). The diluted PKC was stored on ice for immediate use.
Preparation of 3H-PDBu solution
3H-PDBu (American Radiolabeled Chemicals, Inc.; 1 mCi/mL acetone solution; specific activity: […]) was diluted 10-fold with DMSO. The resulting 500 nM stock solution was further diluted with DMSO to 30 nM.
Preparation of analog compound dilutions
Compound dilutions were prepared by serially diluting from a chosen "high" concentration by factors of 3 or 4. For each analog compound, seven concentrations were used to define the […]
To a polypropylene tube was added 3.3 mL of 1 mg/mL PS vesicles solution, 11 mL of PKC isoform solution, and 1.1 mL of 30 nM 3H-PDBu solution were added. The resulting solution was vortexed to mix and stored on ice.
PKC binding assay protocol
- Glass-fiber filters (Whatman GF/B) were prepared by soaking them in a solution of aqueous polyethyleneimine (10% by vol, 18 mL) in deionized water (600 mL) for ≥1h.
- 500 mL "rinsing buffer" of 20 mM Tris, pH 7.4 was cooled on ice for the duration of the incubation period and for the remainder of the assay.
Triplicate data points were obtained for each analog concentration. For each data point, 280 μL of "Master Mix" Solution and 20 μL of analog compound at a specified concentration were added to a polypropylene tube. Non-specific 3H-PDBu binding was assessed in triplicate by substitution

[2] = molecular target: T2, PKCδ-GFP fusion protein (Homo sapiens, UniProt Q05655); experiment: PKCδ-GFP translocation assay in living CHO-k1 cells (confocal microscopy); assay type: cell-based, Chinese hamster; conditions: for Emax at 0.2 µM: CHO-K1, 200 nM compound; for Emax at 0.2 µM / Emax at 1 µM: read-out: % Translocation (maximum translocation of PKCδ-GFP to the plasma membrane); for minimum effective concentration required to induce translocation of PKC-GFP to the membrane: tested at 200 and 1000 nM; for PKC activation dynamics (shape of translocation curve): Fig. 5c, d; for Emax at 1 µM: CHO-K1, 1000 nM compound
T2 construct: expressed in transfected cells; host or cells: CHO-k1 (Chinese hamster ovary, ATCC)
Protocol: as §1
Scale bar represents 25 μm. Experiments performed in n = 3 biological replicates. b–d Cytosolic fluorescence normalized to t = 0 (time immediately prior to addition of compound to media) and plotted against time. Error bars excluded for clarity (data presented as the mean of n = 3 biological replicates). Individual curves with error bars included in Supplementary Information.
PKCδ-GFP Translocation Assay Protocol
Chinese hamster ovary factor K1 (CHO-k1, ATCC) cells were cultured in F-12 Kaighn’s media (Hyclone, 10% fetal bovine serum, 1% penicillin/streptomycin added, reffered to as F-12 +/+ below) at 37 ° C in an incubator (5% CO2). Cell cultures were maintained by splitting cells 1:3 when they reached ~75-100% confluence (every 2-3 days) as follows:
(Gibco) was used to remove the cells from the culture flask (T75, Falcon). 1 mL of the cell suspension was then added to 9 mL of fresh F-12 +/+ and the sample was sub-cultured until reaching confluence (~2-3 days).
Cells were counted using a Countess II Automated Cell Counter (Fisher). The cell suspension was diluted to 240,000 cells/mL with fresh F-12 +/+ and 2.5 mL of this diluted stock was added to one well in a 6-well plate. The cells were then cultured for 24 hours.
Cells were transfected with Lipofectamine 2000 reagent (Invitrogen) or DA 13:11 at a 10:1 charge […]
F-12 +/+ was aspirated and cells were washed with F-12 -/-. 2 mL of fresh F-12 -/- was then added to each well, taking care not to disturb adherent cells. For each well of CHO-k1 cells, 12.5 µL Lipofectamine 2000 reagent (Invitrogen) was added to 250 µL Opti-MEM reduced serum media (Invitrogen) in a polypropylene tube and incubated for 20 minutes at RT. Meanwhile, for each well, 4 µg of PKCδ-GFP pDNA and 250 µL Opti-MEM reduced serum media was added to a separate polypropylene tube. 250 µL of the Lipofectamine 2000 suspension was added to the DNA suspension and the solution incubated for 30 minutes at RT. 500 µL of the Lipofectamine/DNA suspension was added to the respective wells of the 6-well plate. The cells were then incubated at 37 ° C (5% CO2) for ~24 hrs.
F-12 +/+ was aspirated and cells were washed with F-12 -/-. 2.4 mL of fresh F-12 -/- was then added to each well, taking care not to disturb adherent cells. A 4 µg aliquot of PKCδ-GFP pDNA was added to PBS (pH 5.5, final volume 100 µL). 5.6 µL of DA 13:11 (2 mM stock in DMSO) was then added to the DNA solution, and the mixture was gently mixed (by flicking) for 20 seconds, at which point it was added directly to the respective wells of the 6-well plate.

T2 sequence (Q05655 whole entry, the tested form may be a part): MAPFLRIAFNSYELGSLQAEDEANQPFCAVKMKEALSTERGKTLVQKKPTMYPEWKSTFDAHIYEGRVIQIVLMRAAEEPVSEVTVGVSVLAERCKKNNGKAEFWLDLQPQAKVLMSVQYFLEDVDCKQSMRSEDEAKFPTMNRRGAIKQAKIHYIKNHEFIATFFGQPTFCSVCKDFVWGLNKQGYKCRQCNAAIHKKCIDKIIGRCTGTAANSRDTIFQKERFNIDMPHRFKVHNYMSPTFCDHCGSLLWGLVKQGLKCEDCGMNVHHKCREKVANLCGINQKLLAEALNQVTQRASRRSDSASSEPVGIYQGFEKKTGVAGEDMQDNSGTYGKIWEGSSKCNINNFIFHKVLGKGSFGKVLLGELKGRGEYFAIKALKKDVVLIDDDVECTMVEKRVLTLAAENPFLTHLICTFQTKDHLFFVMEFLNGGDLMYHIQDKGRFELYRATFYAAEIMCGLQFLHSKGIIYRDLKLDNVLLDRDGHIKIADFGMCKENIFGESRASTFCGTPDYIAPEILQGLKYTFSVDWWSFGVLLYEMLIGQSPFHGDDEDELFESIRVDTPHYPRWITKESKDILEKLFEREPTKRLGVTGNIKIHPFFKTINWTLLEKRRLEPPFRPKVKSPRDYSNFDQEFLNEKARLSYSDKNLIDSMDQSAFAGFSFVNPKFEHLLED

Structure (SMILES) | Ki [1] [nM] | cytosolic PKC translocated to the plasma membrane ([2]; 200 nM, at 20 min) | Emax at 0.2 µM ([2]; CHO-k1 cells, n = 3) [%] | minimum effective concentration required to induce translocation of PKC-GFP to the membrane ([2]; CHO-k1 cells) [nM] | activity in the PKC translocation assay at 200 nM ([2]; 200 nM) | time required for translocation ([2]; 200 nM) | PKC activation dynamics (shape of translocation curve) [2] | Emax at 1 µM ([2]; CHO-k1 cells, n = 3) [%] | % Translocation (maximum translocation of PKCδ-GFP to the plasma membrane) ([2]; 200 nM compound, CHO-k1 cells, n = 3) [%]
CCCCCC#CC(=O)O[C@H]1/C(=C/C(=O)OC)C[C@H]2C[C@H]([C@@H](C)O)OC(=O)C[C@H](O)C[C@@H]3C[C@H](OC(C)=O)C(C)(C)[C@](O)(C[C@@H]4C[C@H](O)C[C@H](/C=C/C(C)(C)[C@]1(O)O2)O4)O3 [SUW204] | 1.4 | ~ 25% | 25 | 200 | – | – | – | – | –
CCC/C=C/C=C/C(=O)O[C@H]1/C(=C/C(=O)OC)C[C@H]2C[C@H]([C@@H](C)O)OC(=O)C[C@H](O)C[C@@H]3C[C@H](OC(C)=O)C(C)(C)[C@](O)(C[C@@H]4C[C@@H](OC(C)=O)C[C@H](/C=C/C(C)(C)[C@]1(O)O2)O4)O3 [SUW207] | 2 | – | 60 | 200 | – | – | – | – | –
CCCC=CC=CC(=O)OC1C(=CC(=O)OC)CC2CC(C(C)O)OC(=O)CC(O)CC3CC(OC(C)=O)C(C)(C)C(O)(CC4CC(OC(=O)Nc5ccccc5)CC(C=CC(C)(C)C1(O)O2)O4)O3 (stereo not shown) [SUW208] | 1 | – | 75 | 200 | effectively translocated PKC to the plasma membrane | ~ 15 min | delayed activation patterns | – | –
CCCC=CC=CC(=O)OC1C(=CC(=O)OC)CC2CC(C(C)O)OC(=O)CC(O)CC3CC(OC(C)=O)C(C)(C)C(O)(CC4CC(OC(=O)CC56CC7CC(CC(C7)C5)C6)CC(C=CC(C)(C)C1(O)O2)O4)O3 (stereo not shown) [SUW209] | 1.6 | – | – | 1000 | inactive | – | – | 60 | –
CCCC=CC=CC(=O)OC1C(=CC(=O)OC)CC2CC(C(C)O)OC(=O)CC(O)CC3CC(OC(C)=O)C(C)(C)C(O)(CC4CC(OC(=O)CCc5c[nH]c6ccccc56)CC(C=CC(C)(C)C1(O)O2)O4)O3 (stereo not shown) [SUW210] | 5.6 | – | – | 1000 | inactive | – | – | 75 | –
CCCC=CC=CC(=O)OC1C(=CC(=O)OC)CC2CC(C(C)O)OC(=O)CC(O)CC3CC(OC(C)=O)C(C)(C)C(O)(CC4CC(=CC(=O)OCC)CC(C=CC(C)(C)C1(O)O2)O4)O3 (stereo not shown) [SUW217] | 9.2 | – | 75 | 200 | – | – | – | – | –
CCCC=CC=CC(=O)OC1C(=CC(=O)OC)CC2CC(C(C)O)OC(=O)CC(O)CC3CC(OC(C)=O)C(C)(C)C(O)(CC4CC(=CC(=O)OCC)CC(C=CC(C)(C)C1(O)O2)O4)O3 (stereo not shown) [SUW218] | 7.1 | – | – | 200 | – | – | more sustained linear activation dynamics | – | 55
